Paper PMC6022639, “A missense allele of KARRIKIN-INSENSITIVE2 impairs ligand-binding and downstream signaling in Arabidopsis thaliana” (Journal of Experimental Botany, 2018)

Key:
[1] = molecular target: T1, KARRIKIN INSENSITIVE2 (KAI2) (Arabidopsis thaliana, UniProt Q9SZU7); test: ITC ([…] °C); supported by CPM thermal shift; format: binding
T1 construct: full-length, recombinant from E. coli, His tag removed
T1 sequence (Q9SZU7 1-270): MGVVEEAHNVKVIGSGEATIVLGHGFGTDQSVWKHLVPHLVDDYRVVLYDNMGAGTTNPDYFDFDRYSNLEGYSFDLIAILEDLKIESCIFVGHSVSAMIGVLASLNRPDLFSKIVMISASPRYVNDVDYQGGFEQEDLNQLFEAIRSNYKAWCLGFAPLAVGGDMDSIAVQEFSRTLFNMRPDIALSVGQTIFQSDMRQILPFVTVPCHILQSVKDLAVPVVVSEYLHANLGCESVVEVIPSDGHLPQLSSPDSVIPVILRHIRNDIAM

KAI2^ply2 (KAI2^A219V) = molecular target: T2, KAI2^ply2 (KAI2^A219V) (Arabidopsis thaliana, UniProt Q9SZU7, A219V); test: ITC ([…] °C); strongly impaired binding, only marginal change in CPM assay
T2 construct: full-length, recombinant from E. coli, His tag removed
T2 sequence (Q9SZU7 whole entry A219V): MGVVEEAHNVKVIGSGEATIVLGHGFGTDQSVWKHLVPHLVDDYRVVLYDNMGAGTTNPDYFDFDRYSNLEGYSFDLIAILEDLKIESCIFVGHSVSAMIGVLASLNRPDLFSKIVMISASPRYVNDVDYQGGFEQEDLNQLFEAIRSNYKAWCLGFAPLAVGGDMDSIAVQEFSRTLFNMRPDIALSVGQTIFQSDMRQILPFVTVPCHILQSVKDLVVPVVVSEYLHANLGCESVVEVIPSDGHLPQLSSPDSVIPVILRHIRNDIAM

Cc1c2ccocc-2oc1=O [KAR1, 3-methyl-2H-furo[2,3-c]pyran-2-one]
Kd [1]: 147 µM
Kd (KAI2^ply2 (KAI2^A219V)): 2.86 mM
